Assay in all cases: NCI-60 cell line screen, 48 h
In experiment [1] the test system is 786-0.
In experiment [2] the test system is CCRF-CEM.
For experiment [3], the system named is HOP-92.
Experiment [4] has as its system HT-29.
For experiment [5], the system named is IGROV-1.
The subject of experiment [6] is K562.
Experiment [7] has as its system KM12.
Experiment [8] has as its system LOX IMVI.
The subject of experiment [9] is M14.
In experiment [10] the test system is MDA-MB-231.
In experiment [11] the test system is MDA-N.
Experiment [12] has as its system NCI-H460.
Experiment [13] concerns RXF 393.
Experiment [14] has as its system SF-268.
The test system of experiment [15] is SK-MEL-28.
The subject of experiment [16] is SK-MEL-2.
The test system of experiment [17] is SK-MEL-5.
In experiment [18] the test system is SK-OV-3.
The subject of experiment [19] is SR.
Experiment [20] has as its system U-251.

Structures are written as SMILES.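 Five concentrations, 48 hours, 96-well plates. GI50 is the concentration that inhibits growth by half.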 Active and inactive are the calls of the source. No stated cut-off is given here; in the data, active = GI50 up to about 1.1 µM and inactive = higher.

As for `CN(C)CCNC(=O)c1ccc(Cl)c2cc3ccccc3nc12`, the GI50 in experiment [1] is 0.362 µM (active); in [2] it was 0.394 µM (active); in experiment [3], 0.187 µM (active); in experiment [4], 0.422 µM (active); in experiment [5] it was 0.708 µM (active); in experiment [6] it was 0.553 µM (active). In addition, the GI50 in [7] was 0.807 µM (active); in experiment [8], 0.23 µM (active); in [9], 1.23 µM (inactive); in [10], 1.05 µM (active); in [11], 0.889 µM (active); in experiment [12], 0.218 µM (active). For the same molecule, the GI50 was 1.07 µM (active) in [13]; 0.962 µM (active) in experiment [14]; 1.82 µM (inactive) in experiment [15]; 2.01 µM (inactive) in experiment [16]; 1.16 µM (inactive) in [17]; 2.06 µM (inactive) in experiment [18]. Also, the GI50 in [19] was 0.339 µM (active); in experiment [20], 0.6 µM (active).
As for `O=C1[C@@H](O)[C@@H]2CCCC[C@@]23CCCN13`, the GI50 was > 100 µM (inactive) in [1]; > 100 µM (inactive) in experiment [2]; 36.6 µM (inactive) in experiment [3]; > 100 µM (inactive) in experiment [4]; > 100 µM (inactive) in experiment [5]; > 100 µM (inactive) in experiment [6]. Further, the GI50 in experiment [7], in experiment [8], in [9], in experiment [10], in experiment [11] and in experiment [12] was > 100 µM (inactive) each time. The GI50 in experiment [13], in experiment [14], in experiment [15], in experiment [16], in experiment [17] and in experiment [18] was > 100 µM (inactive) in each case. Besides, the GI50 in experiment [19] and in experiment [20] was > 100 µM (inactive) throughout.
In the case of `COC1CC(OC2CCC3(C)C(CCC45CCC(C6=CC(=O)OC6)C(C)(CCC43)C5=O)C2)OC(C)C1O` (stereo not given), the GI50 is 23.6 µM (inactive) in experiment [1]; 18.4 µM (inactive) in experiment [2]; 81.5 µM (inactive) in experiment [3]; 39.5 µM (inactive) in experiment [4]; 38.7 µM (inactive) in [5]; 59.8 µM (inactive) in experiment [6]. Further, the GI50 in [7] was 64.4 µM (inactive); in experiment [8], 38.4 µM (inactive); in [9], > 100 µM (inactive); in experiment [10] it was > 100 µM (inactive); in experiment [11], > 100 µM (inactive); in experiment [12], 18 µM (inactive). The GI50 in experiment [13] is 24 µM (inactive); in [14], 17.5 µM (inactive); in [15], > 100 µM (inactive); in experiment [16], 31.3 µM (inactive); in experiment [17] it was 18.1 µM (inactive); in experiment [18], 46.1 µM (inactive). The figures for the GI50 in [19] and in experiment [20] were 28.1 µM (inactive) and 46.2 µM (inactive), respectively.
With `O=c1nc2n(CCO)c(-c3ccccc3)c(-c3ccccc3)nc-2c(=O)[nH]1`, the GI50 was > 100 µM (inactive) in experiment [1]; > 100 µM (inactive) in experiment [2]; 88.9 µM (inactive) in [3]; > 100 µM (inactive) in experiment [4]; > 100 µM (inactive) in experiment [5]; > 100 µM (inactive) in experiment [6]. The GI50 in [7], in experiment [8], in experiment [9], in experiment [10], in experiment [11] and in experiment [12] was > 100 µM (inactive) throughout. Also, the GI50 in [13], in [14], in [15], in experiment [16], in experiment [17] and in [18] was > 100 µM (inactive) each time. The GI50 in [19] is 40.6 µM (inactive); in experiment [20] it was > 100 µM (inactive).
Take `Nc1ncnc2c1nnn2C1CCC(CP(=O)(O)O)C1` (stereo not given): the GI50 in [1], in [2], in [3], in [4], in experiment [5] and in experiment [6] was > 100 µM (inactive) in each case. Besides, the GI50 in experiment [7], in [8], in experiment [9], in experiment [10], in [11] and in experiment [12] was > 100 µM (inactive) throughout. Also, the GI50 in [13], in experiment [14], in [15], in experiment [16], in [17] and in experiment [18] was > 100 µM (inactive) each time. Moreover, the GI50 in experiment [19] and in experiment [20] was > 100 µM (inactive) throughout.
On to `COC(=O)[C@](C)(Cc1ccccc1)NC(=O)[C@@H](C)N1[C@@H](c2ccccc2)COC1(C)C`, for which the GI50 in [1] is 72.4 µM (inactive); in experiment [2], 89.7 µM (inactive); in experiment [3], 36 µM (inactive); in [4], 46.9 µM (inactive); in [5], 51.2 µM (inactive); in experiment [6] it was 48.1 µM (inactive). Also, the GI50 was 22.2 µM (inactive) in [7]; 77.6 µM (inactive) in [8]; 63.7 µM (inactive) in experiment [9]; 47 µM (inactive) in [10]; 44.2 µM (inactive) in [11]; 31 µM (inactive) in experiment [12]. Further, the GI50 is 75.3 µM (inactive) in experiment [13]; 85.7 µM (inactive) in [14]; > 100 µM (inactive) in experiment [15]; > 100 µM (inactive) in [16]; 43.5 µM (inactive) in [17]; > 100 µM (inactive) in experiment [18]. Besides, the GI50 in [19] is 27.5 µM (inactive); in experiment [20], 57.7 µM (inactive).
Regarding `CCOC(=O)C(=CNc1ccc(F)c(F)c1)C(=O)OCC`, the GI50 was > 100 µM (inactive) in experiment [1]; 54.5 µM (inactive) in experiment [2]; > 100 µM (inactive) in experiment [3]; 94 µM (inactive) in [4]; > 100 µM (inactive) in [5]; 39.4 µM (inactive) in [6]. Besides, the GI50 in [7] is > 100 µM (inactive); in [8], > 100 µM (inactive); in experiment [9] it was > 100 µM (inactive); in experiment [10], > 100 µM (inactive); in experiment [11], 93.1 µM (inactive); in [12] it was > 100 µM (inactive). Further, the GI50 in experiment [13], in [14], in experiment [15], in [16], in experiment [17] and in [18] was > 100 µM (inactive) each time. The results for the GI50 in experiment [19] and in [20] were 39.2 µM (inactive) and > 100 µM (inactive), respectively.
Regarding `COc1cc2c(c(OC)c1OC)C(=O)[C@H](Br)[C@H]2NC(=O)NCCCl`, the GI50 was > 100 µM (inactive) in experiment [1]; 23.6 µM (inactive) in experiment [2]; > 100 µM (inactive) in experiment [3]; > 100 µM (inactive) in [4]; 68.1 µM (inactive) in [5]; 58.2 µM (inactive) in experiment [6]. The GI50 in [7] is 72.8 µM (inactive); in experiment [8], 47.1 µM (inactive); in experiment [9], 86.1 µM (inactive); in experiment [10], > 100 µM (inactive); in experiment [11], 35.2 µM (inactive); in [12], 80.4 µM (inactive). Moreover, the GI50 in [13] was 97.1 µM (inactive); in experiment [14], 49.9 µM (inactive); in [15], > 100 µM (inactive); in experiment [16] it was > 100 µM (inactive); in experiment [17], 37.2 µM (inactive); in experiment [18] it was 59 µM (inactive). Further, the GI50 was 76.2 µM (inactive) in experiment [19] and 51.1 µM (inactive) in experiment [20].
With `COC1=CC(=O)c2c(O)c3c(c(O)c2C1=O)C=C(C)OC3O` (stereo not given), the GI50 was 3.24 µM (inactive) in [1]; 1.64 µM (inactive) in experiment [2]; 6.84 µM (inactive) in experiment [3]; 0.541 µM (active) in experiment [4]; 1.98 µM (inactive) in experiment [5]; 1.44 µM (inactive) in [6]. The GI50 in [7] was 2.21 µM (inactive); in [8], 0.597 µM (active); in [9], 0.281 µM (active); in [10], 1.76 µM (inactive); in experiment [11], 1.66 µM (inactive); in experiment [12] it was 1.35 µM (inactive). The GI50 in experiment [13] is 1.05 µM (active); in experiment [14], 2.18 µM (inactive); in experiment [15] it was 1.27 µM (inactive); in experiment [16] it was 1.96 µM (inactive); in [17] it was 0.269 µM (active); in experiment [18], 8.45 µM (inactive). Moreover, the GI50 in experiment [19] was 1.84 µM (inactive); in experiment [20] it was 2.48 µM (inactive).
For `CCOC(=O)N1CCC2(CC1)CC(=O)N(Nc1ccccc1)C2=O`, the GI50 was > 100 µM (inactive) in experiment [1]; > 100 µM (inactive) in [2]; > 100 µM (inactive) in experiment [3]; 90.2 µM (inactive) in [4]; 79.8 µM (inactive) in experiment [5]; 16.9 µM (inactive) in [6]. The GI50 is 92.7 µM (inactive) in [7]; 98.4 µM (inactive) in experiment [8]; > 100 µM (inactive) in experiment [9]; > 100 µM (inactive) in experiment [10]; 78.3 µM (inactive) in [11]; 94.4 µM (inactive) in experiment [12]. Moreover, the GI50 was > 100 µM (inactive) in experiment [13]; > 100 µM (inactive) in experiment [14]; 74.3 µM (inactive) in experiment [15]; > 100 µM (inactive) in experiment [16]; > 100 µM (inactive) in experiment [17]; > 100 µM (inactive) in experiment [18]. Further, the GI50 in experiment [19] is 32.1 µM (inactive); in [20] it was > 100 µM (inactive).

Source of the values: ChEMBL document CHEMBL1201862, “PubChem BioAssay data set” (2004).
